Data set [1] can be described thus: particle size analysis by light scattering (Coulter LS100Q). The conditions noted are these: Isopar G isoparaffin fluid as dispersing medium. In kind it is physicochemical. On the procedure: Particle size analysis of the product is performed using a Coulter LS100Q Particle Size Analyzer, available from Coulter Corporation of Miami, Florida. The analyzer operates by light scattering, using Isopar™ G isoparaffin fluid, available from ExxonMobil Chemical of Houston, Tex., as the dispersing medium. The sucralose product crystals have a particle size distribution such that 90 wt. % of the sample has a particle size less than 62 μm, while 10 wt. % has a particle size less than from about 4 μm, with a mean of 30 μm.

A short description of data set [2]: accelerated aging test (shelf life of crystalline sucralose). In kind it is physicochemical. On the procedure: Shelf life of crystalline sucralose is commonly estimated by performing an accelerated aging test. In this test the crystals are maintained in a controlled atmosphere at 50° C. (122° F.), and sampled periodically. Each sample is dissolved in water and the pH of a 10% solution is tracked to determine the elapsed time at which the pH drops by one unit, indicating a slight sucralose decomposition. Crystals made by traditional methods are considered stable when such decomposition is not indicated until at least 3 days in this test. This is considered equivalent to a shelf life under ambient conditions of about 8 years.

The text below walks through data of patent US20050203290A1, “Crystalline form of sucralose, and method for producing it” (priority 2003, published 2005).

Molecules are shown by their SMILES.

For `OC[C@H]1O[C@H](O[C@]2(CCl)O[C@H](CCl)[C@@H](O)[C@@H]2O)[C@H](O)[C@@H](O)[C@H]1Cl` [sucralose product crystals, 4,1′,6′-trichloro-4,1′,6′-trideoxygalactosucrose], in data set [1], the mean particle size came out at 30 μm, the “particle size below which 10 wt. % of the sample lies” value is on record as < 4 μm and the “particle size below which 90 wt. % of the sample lies” value was “less than 62 μm”. For the same compound, the “stability in accelerated aging test: elapsed time until pH of a 10% solution drops by one unit” value in data set [2] (crystals kept at 50° C. (122° F.) in controlled atmosphere, Example product dried at about 60° F., moisture about 0.5 wt. %) is given as “at least 3 days”. In addition, in data set [2] (extrapolated from accelerated aging test at 50° C.), the “shelf life under typical ambient storage conditions corresponding to the accelerated aging result” value is “about 8 years”.
Regarding `OC[C@H]1O[C@H](O[C@]2(CCl)O[C@H](CCl)[C@@H](O)[C@@H]2O)[C@H](O)[C@@H](O)[C@H]1Cl` [old crystals, 4,1′,6′-trichloro-4,1′,6′-trideoxygalactosucrose, reference compound], the “elapsed time until pH drop under accelerated conditions” value in data set [2] (50° C., dried at the preferred temperature, moisture levels typical of old crystals) was 3 days.
